From article PMC12498190, “A Photocaged N‐Phosphonopiperidinone as a Selective Photo‐Cleavable DPP8/9 Inhibitor” (Chembiochem, 2025) come the findings set out here.

In the assay the target is T1, human DPP8 (Homo sapiens, UniProt Q6V1X1).
T1 construct: purchased Proteros Biostructures GmbH, Germany
As to the kind of experiment: DPP8 enzyme inhibition assay, AMC release from GP-AMC. Format: biochemical. The note with it: for IC50: 45 min pre-incubation, read-out: Apparent IC50. From the text:
We then continued to investigate the biochemical properties of the photocaged compound 5 versus the photoreleased product resembling inhibitor 1. To this end, we performed biochemical enzyme inhibition assays with DPP8 and DPP9 before and after irradiation of 5. Resulting DPP8/9 inhibition was quantified by following the DPP8‐ or DPP9‐mediated proteolysis of the fluorophore 7‐amino‐4‐methylcoumarin (AMC) from the model substrate Gly‐Pro‐AMC (Figure 1C,D and Table 1 ). To induce photocleavage of 5, reaction mixtures were irradiated for 5 min with the same green LED lamp as before, followed by a pre‐incubation of 45 min with the photoreleased inhibitor prior to substrate addition.
Enzyme activity of human DPP4, DPP8, and DPP9 (Proteros Biostructures GmbH, Germany) was determined by measuring the initial velocity of AMC release from the fluorogenic substrate GP‐AMC (Sigma Aldrich, USA) using a Tecan Spark 10 M multimode microplate reader (Tecan Group Ltd., Switzerland) in activity buffer (20 mM HEPES/KOH pH 7.3, 110 mM potassium acetate, 2 mM magnesium acetate, 0.5 mM EGTA, 0.02% Tween 20, supplemented with 1 mM DTT) and a final volume of 20 μL for maximal 30 min at 30 °C. Prior to the activity measurement, 10 nM of the corresponding enzyme was incubated for 45 min at 30 °C and gentle shaking with the indicated compounds at concentrations ranging from 0 to 100 μM, followed by irradiation with a green LED lamp (λ = 520−530 nm; Eurolite, Germany) for 5 min. The corresponding compounds were dissolved in DMSO and diluted in activity buffer (final DMSO concentration: 1%). To the inhibitor–enzyme mixture, GP‐AMC was then added to a final concentration of 250 μM, and the activity measurement was started. The resulting enzyme activity was calculated from the slope (fluorescence release over time) and plotted against the concentrations of the inhibitor. Apparent IC50 values were calculated using Graph‐Pad Prism v10.4.1 using the equation: [Inhibitor] versus response‐Variable slope (four parameters). All measurements were performed in triplicate, and error bars represent standard errors of the fit.

Read-outs that look alike come from different tables or passages of the source.

T1 sequence (Q6V1X1 whole entry): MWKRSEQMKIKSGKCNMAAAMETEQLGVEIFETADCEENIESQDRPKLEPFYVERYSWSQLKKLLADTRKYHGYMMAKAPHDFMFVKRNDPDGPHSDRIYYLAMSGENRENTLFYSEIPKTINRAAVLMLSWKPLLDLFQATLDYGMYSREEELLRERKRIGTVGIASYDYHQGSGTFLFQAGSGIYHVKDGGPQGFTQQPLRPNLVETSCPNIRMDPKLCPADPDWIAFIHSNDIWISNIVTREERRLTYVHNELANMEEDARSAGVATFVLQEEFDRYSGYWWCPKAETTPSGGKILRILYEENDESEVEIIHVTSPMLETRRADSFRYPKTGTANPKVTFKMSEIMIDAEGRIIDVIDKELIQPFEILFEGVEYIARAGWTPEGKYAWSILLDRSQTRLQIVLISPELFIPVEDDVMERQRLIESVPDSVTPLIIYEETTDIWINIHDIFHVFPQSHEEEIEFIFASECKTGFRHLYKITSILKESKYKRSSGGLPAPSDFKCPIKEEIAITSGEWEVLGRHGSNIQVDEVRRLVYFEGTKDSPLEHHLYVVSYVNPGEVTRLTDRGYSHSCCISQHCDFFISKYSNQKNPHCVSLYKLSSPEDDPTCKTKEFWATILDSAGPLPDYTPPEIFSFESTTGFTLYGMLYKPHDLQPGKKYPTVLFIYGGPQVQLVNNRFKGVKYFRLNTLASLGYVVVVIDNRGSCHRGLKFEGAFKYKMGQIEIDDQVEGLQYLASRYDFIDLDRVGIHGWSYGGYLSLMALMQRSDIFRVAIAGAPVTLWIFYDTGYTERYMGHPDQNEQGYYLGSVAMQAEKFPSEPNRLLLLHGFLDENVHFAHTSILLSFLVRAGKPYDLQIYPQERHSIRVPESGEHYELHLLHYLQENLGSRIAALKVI

Consider `CCCCCc1ccc(SCCP(=O)(OCC)N2CCC[C@H](NC(=O)OCC3=C4C(C)=CC(C)=[N+]4[B-](C)(C)n4c(C)cc(C)c43)C2=O)cc1` (stereo partly shown) [Compound 5], for which the “Dark/light ratio of apparent IC50” value came out at 30. Further, the “Increase in potency after green light-mediated photorelease” value (apparent IC50 dark vs light) is listed as “about 30 fold”. Moreover, the IC50 (dark (without green light irradiation)) came to 1100 nM. Besides, the 50% inhibitory concentration (IC50) (light (5 min green LED, 520-530 nm)) was determined as 37 ± 3 nM.

Usually IC50 stands for the concentration that gives 50% inhibition.
